# The supplement of paper PMC9663587
# Key:
# Flavopiridol [1] = compound: T1, CN1CC[C@H](c2c(O)cc(O)c3c(=O)cc(-c4ccccc4Cl)oc23)[C@H](O)C1 [Flavopiridol]
# Doxorubicin = compound: COc1cccc2c1C(=O)c1c(O)c3c(c(O)c1C2=O)C[C@@](O)(C(=O)CO)C[C@@H]3O[C@H]1C[C@H](N)[C@H](O)[C@H](C)O1 [Doxorubicin]
# Ipatasertib/GDC0068 = compound: CC(C)NC[C@@H](C(=O)N1CCN(c2ncnc3c2[C@H](C)C[C@H]3O)CC1)c1ccc(Cl)cc1 [Ipatasertib/GDC0068]
# Luminespib/NVP-AUY922 = compound: CCNC(=O)c1noc(-c2cc(C(C)C)c(O)cc2O)c1-c1ccc(CN2CCOCC2)cc1 [Luminespib/NVP-AUY922]
# Olaparib/AZD2281 = compound: O=C(c1cc(Cc2n[nH]c(=O)c3ccccc23)ccc1F)N1CCN(C(=O)C2CC2)CC1 [Olaparib/AZD2281]
# ABT-737 = compound: CN(C)CC[C@H](CSc1ccccc1)Nc1ccc(S(=O)(=O)NC(=O)c2ccc(N3CCN(Cc4ccccc4-c4ccc(Cl)cc4)CC3)cc2)cc1[N+](=O)[O-] [ABT-737]
# Paclitaxel = compound: CC(=O)O[C@H]1C(=O)[C@@]2(C)[C@H]([C@H](OC(=O)c3ccccc3)[C@]3(O)C[C@H](OC(=O)[C@H](O)[C@@H](NC(=O)c4ccccc4)c4ccccc4)C(C)=C1C3(C)C)[C@]1(OC(C)=O)CO[C@@H]1C[C@@H]2O [Paclitaxel]
# Taselisib/GDC0032 = compound: Cc1nc(-c2cn3c(n2)-c2ccc(-c4cnn(C(C)(C)C(N)=O)c4)cc2OCC3)n(C(C)C)n1 [Taselisib/GDC0032]
# BSJ-01-175 = compound: CN(C)C/C=C/C(=O)Nc1ccc(O[C@@H]2CCC[C@@H](Nc3ncc(Cl)c(-c4c[nH]c5ccccc45)n3)C2)cc1 [BSJ-01-175]
# Flavopiridol [2] = compound: T1, Flavopiridol; assay: GR value, 72 h; higher = faster growth (1 = untreated, <0 = killing);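 further: breast cancer and non-malignant breast epithelial lines, nine half-log doses, viable cells counted by Hoechst and LIVE/DEAD dye imaging versus time-zero plates and DMSO controls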
# LEE011/Ribociclib = compound: CN(C)C(=O)c1cc2cnc(Nc3ccc(N4CCNCC4)cn3)nc2n1C1CCCC1 [LEE011/Ribociclib]; assay: as above
# [3] = compound: CCN1CCN(Cc2ccc(Nc3ncc(F)c(-c4cc(F)c5nc(C)n(C(C)C)c5c4)n3)nc2)CC1; assay: as above
# YKL-5-124 = compound: C=CC(=O)Nc1ccc(C(=O)Nc2[nH]nc3c2CN(C(=O)N[C@H](CN(C)C)c2ccccc2)C3(C)C)cc1 [YKL-5-124]; assay: as above
# BSJ-03-123 = compound: CC(=O)c1c(C)c2cnc(Nc3ccc(N4CCN(CCOCCOCCOCCNC(=O)COc5cccc6c5C(=O)N(C5CCC(=O)NC5=O)C6=O)CC4)cn3)nc2n(C2CCCC2)c1=O [BSJ-03-123]; assay: as above
# [4] = compound: CC(=O)c1c(C)c2cnc(Nc3ccc(N4CCNCC4)cn3)nc2n(C2CCCC2)c1=O; assay: as above
# [5] = compound: CCc1cnn2c(NCc3ccc[n+]([O-])c3)cc(N3CCCC[C@H]3CCO)nc12; assay: as above
# THZ531 = compound: CN(C)C/C=C/C(=O)Nc1ccc(C(=O)N2CCC[C@@H](Nc3ncc(Cl)c(-c4c[nH]c5ccccc45)n3)C2)cc1 [THZ531]; assay: as above
# 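Wherever GR50, 72 h is given: breast cancer and non-malignant breast epithelial cell lines, Deep Dye Drop or Dye Drop imaging, nine half-log doses, GR normalized to time-zero plates and DMSO-only controls.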
cell line,measurement,setting,value
EVSAT,"GR50, 72 h",Flavopiridol [1],0.369 µM
same,"GR50, 72 h",Doxorubicin,0.00911 µM
same,"GR50, 72 h",Ipatasertib/GDC0068,0.256 µM
same,"GR50, 72 h",Luminespib/NVP-AUY922,0.00716 µM
same,"GR50, 72 h",Olaparib/AZD2281,> 10 µM
same,"GR50, 72 h",ABT-737,> 10 µM
same,"GR50, 72 h",Paclitaxel,0.00167 µM
same,"GR50, 72 h",Taselisib/GDC0032,0.517 µM
same,"GR50, 72 h",BSJ-01-175,0.146 µM
same,GR value,Flavopiridol [2]; 0.0001 µM,1.01 GR
same,GR value,Flavopiridol [2]; 0.0003162 µM,1.06 GR
same,GR value,Flavopiridol [2]; 0.001 µM,1.02 GR
same,GR value,Flavopiridol [2]; 0.003162 µM,0.984 GR
same,GR value,Flavopiridol [2]; 0.01 µM,0.925 GR
same,GR value,Flavopiridol [2]; 0.03162 µM,0.97 GR
same,GR value,Flavopiridol [2]; 0.1 µM,0.917 GR
same,GR value,Flavopiridol [2]; 0.3162 µM,0.619 GR
same,GR value,Flavopiridol [2]; 1 µM,-0.514 GR
same,GR value,LEE011/Ribociclib; 0.001 µM,0.968 GR
same,GR value,LEE011/Ribociclib; 0.003162 µM,0.932 GR
same,GR value,LEE011/Ribociclib; 0.01 µM,0.956 GR
same,GR value,LEE011/Ribociclib; 0.03162 µM,0.939 GR
same,GR value,LEE011/Ribociclib; 0.1 µM,0.901 GR
same,GR value,LEE011/Ribociclib; 0.3162 µM,0.821 GR
same,GR value,LEE011/Ribociclib; 1 µM,0.862 GR
same,GR value,LEE011/Ribociclib; 3.162 µM,0.813 GR
same,GR value,LEE011/Ribociclib; 10 µM,0.616 GR
same,GR value,[3]; 0.001 µM,0.973 GR
same,GR value,[3]; 0.003162 µM,0.947 GR
same,GR value,[3]; 0.01 µM,0.933 GR
same,GR value,[3]; 0.03162 µM,0.853 GR
same,GR value,[3]; 0.1 µM,0.761 GR
same,GR value,[3]; 0.3162 µM,0.679 GR
same,GR value,[3]; 1 µM,0.521 GR
same,GR value,[3]; 3.162 µM,0.393 GR
same,GR value,[3]; 10 µM,-0.545 GR
same,GR value,YKL-5-124; 0.001 µM,0.327 GR
same,GR value,YKL-5-124; 0.003162 µM,0.292 GR
same,GR value,YKL-5-124; 0.01 µM,0.215 GR
same,GR value,YKL-5-124; 0.03162 µM,0.13 GR
same,GR value,YKL-5-124; 0.1 µM,0.0905 GR
same,GR value,YKL-5-124; 0.3162 µM,0.0313 GR
same,GR value,YKL-5-124; 1 µM,0.019 GR
same,GR value,YKL-5-124; 3.162 µM,-0.0275 GR
same,GR value,YKL-5-124; 10 µM,-0.412 GR
same,GR value,BSJ-03-123; 0.001 µM,0.994 GR
same,GR value,BSJ-03-123; 0.003162 µM,0.961 GR
same,GR value,BSJ-03-123; 0.01 µM,0.922 GR
same,GR value,BSJ-03-123; 0.03162 µM,0.885 GR
same,GR value,BSJ-03-123; 0.1 µM,0.851 GR
same,GR value,BSJ-03-123; 0.3162 µM,0.819 GR
same,GR value,BSJ-03-123; 1 µM,0.724 GR
same,GR value,BSJ-03-123; 3.162 µM,0.67 GR
same,GR value,BSJ-03-123; 10 µM,0.0632 GR
same,GR value,[4]; 0.0003162 µM,1.02 GR
same,GR value,[4]; 0.001 µM,1 GR
same,GR value,[4]; 0.003162 µM,0.994 GR
same,GR value,[4]; 0.01 µM,0.974 GR
same,GR value,[4]; 0.03162 µM,0.863 GR
same,GR value,[4]; 0.1 µM,0.792 GR
same,GR value,[4]; 0.3162 µM,0.752 GR
same,GR value,[4]; 1 µM,0.671 GR
same,GR value,[4]; 3.162 µM,0.637 GR
same,GR value,[5]; 0.0001 µM,0.951 GR
same,GR value,[5]; 0.0003162 µM,0.967 GR
same,GR value,[5]; 0.001 µM,0.959 GR
same,GR value,[5]; 0.003162 µM,0.994 GR
same,GR value,[5]; 0.01 µM,1.01 GR
same,GR value,[5]; 0.03162 µM,0.299 GR
same,GR value,THZ531; 0.0001 µM,0.995 GR
same,GR value,THZ531; 0.0003162 µM,0.952 GR
same,GR value,THZ531; 0.001 µM,1 GR
same,GR value,THZ531; 0.003162 µM,1.01 GR
same,GR value,THZ531; 0.01 µM,1.07 GR
same,GR value,THZ531; 0.03162 µM,1.06 GR
same,GR value,THZ531; 0.1 µM,0.745 GR
same,GR value,THZ531; 0.3162 µM,0.0467 GR
